Data: patent US9995734B2, “Human T cell line assay for evaluating the immunologic identity of glatiramer acetate preparations” (Mylan Inc., priority 2013, dated 2018)
Marks after values point to notes of the source that are not given here.

Tests used:
Donor 3 GMA T-Cell Lines = test: ATP proliferation assay (CellTiter Glo), Donor 3 GMA T-cell lines, incl. reactivity to non-canonical GA peptides; assay type: cell-based, human
Donor 3 COP T-Cell Lines = test: ATP proliferation assay (CellTiter Glo), Donor 3 COP T-cell lines, incl. reactivity to non-canonical GA peptides; assay type: cell-based, human; conditions: for ATP proliferation assay: 10 μg/mL, Day 14

glatiramer acetate [COP]
response in proliferation assay (Donor 3 GMA T-Cell Lines; 165-B5G, 165-D8G, 165-E7G, 165-F5G, Day 56, 0, 1, 5, 10, 100 μg/mL, GMA and COP responses comparable): responded well | Proliferation (luminescent ATP assay), Mean (Donor 3 GMA T-Cell Lines; T-cell line 165-05G, 1 μg/mL antigen, Day 50 of culturing, No Antigen Value 2149): 6791 RLU | Proliferation (luminescent ATP assay), Mean (Donor 3 GMA T-Cell Lines; T-cell line 165-05G, 3 μg/mL antigen, Day 50 of culturing, No Antigen Value 2149): 42584 RLU | Proliferation (luminescent ATP assay), Mean (Donor 3 GMA T-Cell Lines; T-cell line 165-05G, 10 μg/mL antigen, Day 50 of culturing, No Antigen Value 2149): 56893 RLU | Proliferation (luminescent ATP assay), Mean (Donor 3 GMA T-Cell Lines; T-cell line 165-05G, 30 μg/mL antigen, Day 50 of culturing, No Antigen Value 2149): 55001 RLU | Mean, ATP proliferation assay (Donor 3 GMA T-Cell Lines; T-cell line 165-B2G, 1 μg/mL, Day 40): 3779 | Mean, ATP proliferation assay (Donor 3 GMA T-Cell Lines; T-cell line 165-B2G, 3 μg/mL, Day 40): 11983 | Mean, ATP proliferation assay (Donor 3 GMA T-Cell Lines; T-cell line 165-B2G, line COP 10 μg/mL, footnote: well contained 3 μg/mL COP, Day 40): 10980* | Proliferation (luminescent ATP assay), Mean (Donor 3 GMA T-Cell Lines; T-cell line 165-B5G, 1 μg/mL antigen, Day 81 of culturing, No Antigen Value 2432): 6275 RLU | Mean, ATP proliferation assay (Donor 3 GMA T-Cell Lines; T-cell line 165-B5G, 1 μg/mL, Day 40): 3672 | Proliferation (luminescent ATP assay), Mean (Donor 3 GMA T-Cell Lines; T-cell line 165-B5G, 3 μg/mL antigen, Day 81 of culturing, No Antigen Value 2432): 7499 RLU | Mean, ATP proliferation assay (Donor 3 GMA T-Cell Lines; T-cell line 165-B5G, 3 μg/mL, Day 40): 3673 | Proliferation (luminescent ATP assay), Mean (Donor 3 GMA T-Cell Lines; T-cell line 165-B5G, 10 μg/mL antigen, Day 81 of culturing, No Antigen Value 2432): 10914 RLU | Mean, ATP proliferation assay (Donor 3 GMA T-Cell Lines; T-cell line 165-B5G, 10 μg/mL, Day 40): 14282 | Proliferation (luminescent ATP assay), Mean (Donor 3 GMA T-Cell Lines; T-cell line 165-B5G, 30 μg/mL antigen, Day 81 of culturing, No Antigen Value 2432): 13974 RLU | Mean, ATP proliferation assay (Donor 3 GMA T-Cell Lines; T-cell line 165-C4G, 1 μg/mL, Day 40): 3143 | Mean, ATP proliferation assay (Donor 3 GMA T-Cell Lines; T-cell line 165-C4G, 3 μg/mL, Day 40): 3959 | Mean, ATP proliferation assay (Donor 3 GMA T-Cell Lines; T-cell line 165-C4G, line COP 10 μg/mL, footnote: well contained 3 μg/mL COP, Day 40): 3717* | Mean, ATP proliferation assay (Donor 3 GMA T-Cell Lines; T-cell line 165-C5G, 1 μg/mL, Day 40): 12667 | Mean, ATP proliferation assay (Donor 3 GMA T-Cell Lines; T-cell line 165-C5G, 3 μg/mL, Day 40): 24835 | Mean, ATP proliferation assay (Donor 3 GMA T-Cell Lines; T-cell line 165-C5G, 10 μg/mL, Day 40): 47537 | Mean, ATP proliferation assay (Donor 3 GMA T-Cell Lines; T-cell line 165-C8G, 1 μg/mL, tested with the Donor 3 COP lines of Table 25): 400 RLU | Mean, ATP proliferation assay (Donor 3 GMA T-Cell Lines; T-cell line 165-C8G, 3 μg/mL, tested with the Donor 3 COP lines of Table 25): 4821 RLU | Mean, ATP proliferation assay (Donor 3 GMA T-Cell Lines; T-cell line 165-C8G, 10 μg/mL, tested with the Donor 3 COP lines of Table 25): 22961 RLU | Mean, ATP proliferation assay (Donor 3 GMA T-Cell Lines; T-cell line 165-D8G, 1 μg/mL, Day 40): 8088 | Mean, ATP proliferation assay (Donor 3 GMA T-Cell Lines; T-cell line 165-D8G, 3 μg/mL, Day 40): 8722 | Mean, ATP proliferation assay (Donor 3 GMA T-Cell Lines; T-cell line 165-D8G, 10 μg/mL, Day 40): 28872 | Proliferation (luminescent ATP assay), Mean (Donor 3 GMA T-Cell Lines; T-cell line 165-E7G, 1 μg/mL antigen, Day 81 of culturing, No Antigen Value 2145): 4217 RLU | Mean, ATP proliferation assay (Donor 3 GMA T-Cell Lines; T-cell line 165-E7G, 1 μg/mL, Day 40): 3794 | Proliferation (luminescent ATP assay), Mean (Donor 3 GMA T-Cell Lines; T-cell line 165-E7G, 3 μg/mL antigen, Day 81 of culturing, No Antigen Value 2145): 5366 RLU | Mean, ATP proliferation assay (Donor 3 GMA T-Cell Lines; T-cell line 165-E7G, 3 μg/mL, Day 40): 4147 | Proliferation (luminescent ATP assay), Mean (Donor 3 GMA T-Cell Lines; T-cell line 165-E7G, 10 μg/mL antigen, Day 81 of culturing, No Antigen Value 2145): 7619 RLU | Mean, ATP proliferation assay (Donor 3 GMA T-Cell Lines; T-cell line 165-E7G, 10 μg/mL, Day 40): 12565 | Proliferation (luminescent ATP assay), Mean (Donor 3 GMA T-Cell Lines; T-cell line 165-E7G, 30 μg/mL antigen, Day 81 of culturing, No Antigen Value 2145): 7161 RLU | Proliferation (luminescent ATP assay), Mean (Donor 3 GMA T-Cell Lines; T-cell line 165-E9G, 1 μg/mL antigen, Day 50 of culturing, No Antigen Value 1742): 1999 RLU | Mean, ATP proliferation assay (Donor 3 GMA T-Cell Lines; T-cell line 165-E9G, 1 μg/mL, Day 40): 3216 | Proliferation (luminescent ATP assay), Mean (Donor 3 GMA T-Cell Lines; T-cell line 165-E9G, 3 μg/mL antigen, Day 50 of culturing, No Antigen Value 1742): 5538 RLU | Mean, ATP proliferation assay (Donor 3 GMA T-Cell Lines; T-cell line 165-E9G, 3 μg/mL, Day 40): 5584 | Mean, ATP proliferation assay (Donor 3 GMA T-Cell Lines; T-cell line 165-E9G, 10 μg/mL, Day 40): 25454 | Proliferation (luminescent ATP assay), Mean (Donor 3 GMA T-Cell Lines; T-cell line 165-E9G, 30 μg/mL antigen, Day 50 of culturing, No Antigen Value 1742): 38286 RLU | Proliferation (luminescent ATP assay), Mean (Donor 3 GMA T-Cell Lines; T-cell line 165-E9G, 10 μpg/mL antigen, Day 50 of culturing, No Antigen Value 1742): 38813 RLU | Mean, ATP proliferation assay (Donor 3 GMA T-Cell Lines; T-cell line 165-F2G, 1 μg/mL, Day 40): 1700 | Mean, ATP proliferation assay (Donor 3 GMA T-Cell Lines; T-cell line 165-F2G, 3 μg/mL, Day 40): 1332 | Mean, ATP proliferation assay (Donor 3 GMA T-Cell Lines; T-cell line 165-F2G, 10 μg/mL, Day 40): 1554 | Mean, ATP proliferation assay (Donor 3 GMA T-Cell Lines; T-cell line 165-F5G, 1 μg/mL, Day 40): 4332 | Mean, ATP proliferation assay (Donor 3 GMA T-Cell Lines; T-cell line 165-F5G, 3 μg/mL, Day 40): 6099 | Mean, ATP proliferation assay (Donor 3 GMA T-Cell Lines; T-cell line 165-F5G, 10 μg/mL, Day 40): 19498 | Mean, ATP proliferation assay (Donor 3 GMA T-Cell Lines; T-cell line 165-F8G, 1 μg/mL, Day 40): 3690 | Mean, ATP proliferation assay (Donor 3 GMA T-Cell Lines; T-cell line 165-F8G, 3 μg/mL, Day 40): 3184 | Mean, ATP proliferation assay (Donor 3 GMA T-Cell Lines; T-cell line 165-F8G, 10 μg/mL, Day 40): 10663 | Proliferation (luminescent ATP assay), Mean (Donor 3 GMA T-Cell Lines; T-cell line 165-F10G, 1 μg/mL antigen, Day 50 of culturing, No Antigen Value 3752): 6350 RLU | Mean, ATP proliferation assay (Donor 3 GMA T-Cell Lines; T-cell line 165-F10G, 1 μg/mL, Day 40): 8427 | Proliferation (luminescent ATP assay), Mean (Donor 3 GMA T-Cell Lines; T-cell line 165-F10G, 3 μg/mL antigen, Day 50 of culturing, No Antigen Value 3752): 40495 RLU | Proliferation (luminescent ATP assay), Mean (Donor 3 GMA T-Cell Lines; T-cell line 165-F10G, 10 μg/mL antigen, Day 50 of culturing, No Antigen Value 3752): 58726 RLU | Mean, ATP proliferation assay (Donor 3 GMA T-Cell Lines; T-cell line 165-F10G, 10 μg/mL, Day 40): 29986 | Proliferation (luminescent ATP assay), Mean (Donor 3 GMA T-Cell Lines; T-cell line 165-F10G, 30 μg/mL antigen, Day 50 of culturing, No Antigen Value 3752): 60488 RLU | Mean, ATP proliferation assay (Donor 3 GMA T-Cell Lines; T-cell line 165-F10G, line COP 3 μg/mL, footnote: well contained 10 μg/mL COP, Day 40): 31303** | Proliferation (luminescent ATP assay), Mean (Donor 3 GMA T-Cell Lines; T-cell line 165-H11G, 1 μg/mL antigen, Day 50 of culturing, No Antigen Value 1485): 8610 RLU | Mean, ATP proliferation assay (Donor 3 GMA T-Cell Lines; T-cell line 165-H11G, 1 μg/mL, Day 40): 9102 | Proliferation (luminescent ATP assay), Mean (Donor 3 GMA T-Cell Lines; T-cell line 165-H11G, 3 μg/mL antigen, Day 50 of culturing, No Antigen Value 1485): 37551 RLU | Mean, ATP proliferation assay (Donor 3 GMA T-Cell Lines; T-cell line 165-H11G, 3 μg/mL, Day 40): 15637 | Proliferation (luminescent ATP assay), Mean (Donor 3 GMA T-Cell Lines; T-cell line 165-H11G, 10 μg/mL antigen, Day 50 of culturing, No Antigen Value 1485): 50044 RLU | Mean, ATP proliferation assay (Donor 3 GMA T-Cell Lines; T-cell line 165-H11G, 10 μg/mL, Day 40): 43786 | Proliferation (luminescent ATP assay), Mean (Donor 3 GMA T-Cell Lines; T-cell line 165-H11G, 30 μg/mL antigen, Day 50 of culturing, No Antigen Value 1485): 32898 RLU | responsiveness in proliferation assay (Donor 3 GMA T-Cell Lines; all 8 Donor 3 GMA cell lines tested, Day 32, 10 μg/mL (Table 19)): responsive | responsiveness in proliferation assay (Donor 3 GMA T-Cell Lines; eleven of the 12 cell lines (all but F2G), Day 40, 1, 3 or 10 μg/mL (Table 21)): responsive | ratio of proliferation after stimulation with COP to proliferation in response to the APC control (Donor 3 COP T-Cell Lines): greater than 3.0 | ATP proliferation assay (Donor 3 COP T-Cell Lines; 165-B6C, control 14966): 77564 RLU | ATP proliferation assay (Donor 3 COP T-Cell Lines; 165-B10C, control 10604): 54779 RLU | ATP proliferation assay (Donor 3 COP T-Cell Lines; 165-C4C, control 23510): 108089 RLU | ATP proliferation assay (Donor 3 COP T-Cell Lines; 165-C7C, control 12707): 63491 RLU | ATP proliferation assay (Donor 3 COP T-Cell Lines; 165-C9C, control 22840): 113199 RLU | response in ATP proliferation assay (Donor 3 COP T-Cell Lines; 165-D2C, 165-C7C, 165-C4C, Day 39, three concentrations (Table 24)): responded comparably | ATP proliferation assay (Donor 3 COP T-Cell Lines; 165-D2C, control 12767): 54895 RLU | ATP proliferation assay (Donor 3 COP T-Cell Lines; 165-D3C, control 18380): 119241 RLU
